Data on one molecule can be found in patent publication US20110052700A1, “GASTRIC RETENTIVE PHARMACEUTICAL COMPOSITIONS FOR IMMEDIATE AND EXTENDED RELEASE OF LEVOSULPIRIDE” (DEPOMED, INC., priority 2009, published 2011).

Series [1] can be described thus: Stress stability study, open dishes at 50° C or 80° C, 75% RH, 3 days, HPLC impurity analysis. The format is physicochemical. The procedure: In the present work, levosulpiride was subjected to stress and compatibility studies using methods published in the European Pharmacopoeia, Supplement 2001, 1572 Assay. Both levosulpiride powder and granules comprising 95 wt % levosulpiride and 5 wt % povidone (PVP) prepared as described in Example 1 were incubated in open dishes in a stability chamber/oven at 50° C. or 80° C., 75% relative humidity (RH) for 3 days. The substances were then analyzed by HPLC (high performance liquid chromatography). The mobile phase (MP) was composed of 10% acetonitrile (ACN), 10% methanol (MeOH) and an 80% solution containing 6.8 g/l of potassium dihydrogen phosphate and 1 g/l of sodium octanesulphonate, pH 3.3. The column was a 0.25 m×4.6 mm, 5 μm Zorbax RX C8 (Agilent, Inc.), flow was set at 1.5 ml/min with a wavelength of 240 nm.

The nature of series [2]: Excipient compatibility study, HDPE bottles, 40° C, 75% RH, HPLC impurity analysis. The format is physicochemical. The method, then: Studies were done to determine compatibility of the levosulpiride with the various excipients used in the formulations described herein. Samples, as described in Table 12 below, were packaged into 60 cc high-density polyethylene (HDPE) bottles with an induction seal, then stored at 40° C., 75% relative humidity (RH). Samples may be taken at various time points to analyze for the presence of impurities.
Various samples comprised of the levosulpiride with excipients as described in Table 11 below were packaged in 60 cc HDPE bottles with induction seals, then stored at 40° C., 75% RH. Samples were analyzed at 1 and 2 months using HPLC according to the method described in Example 6.

Where [3] appears, read: 1 vs. 2 month (one value given).

On to `CCN1CCC[C@H]1CNC(=O)c1cc(S(N)(=O)=O)ccc1OC` [Levosulpiride], for which, in series [1] (50° C. or 80° C., 75% RH, 3 days), the “Impurities under the stressed condition” value is “did not increase”. In addition, the “Impurity B RPA (%)” value in series [1] (50° C./75% RH, Time = 3 days) was under 0.05%; in series [1] (80° C./75% RH, Time = 3 days), under 0.05%; in series [1] (Time = 0) it was under 0.05%; in series [2] (setting [3]) it was under 0.05%. For the same molecule, the “Levosulpiride peak RPA (%)” value in series [1] (50° C./75% RH, Time = 3 days) worked out at 100%; in series [1] (80° C./75% RH, Time = 3 days), 100%; in series [1] (Time = 0), 100%; in series [2] (setting [3]), 100%. Moreover, the “Unknown Impurity 1 RPA (%)” value in series [1] (50° C./75% RH, Time = 3 days) was under 0.05%; in series [1] (80° C./75% RH, Time = 3 days) it was under 0.05%; in series [1] (Time = 0), under 0.05%; in series [2] (setting [3]) it was under 0.05%. The “Unknown Impurity 2 RPA (%)” value in series [1] (50° C./75% RH, Time = 3 days) is 0.20%; in series [1] (80° C./75% RH, Time = 3 days) it was 0.22%; in series [1] (Time = 0), 0.17%; in series [2] (1 month), 0.18%; in series [2] (2 month), 0.19%.
